Measurements reported in US20120059038A1, “[…]” (Astellas Pharma Inc., priority 2009, published 2012).
Converted amounts (≈) assume the structure as drawn.

Assays:
[1] = test system: dormantfungi present around infections; settings: reported in Mycoses, 46, pp. 505-510, 2003; cited from earlier work
[2] = test system: Alternaria alternata AHU9258; assay: Antifungal activity, broth microdilution method; assay type: cell-based; settings: minimum inhibitory concentration
Procedure: (§1) Antifungal activities for the following test fungi were determined by a broth microdilution method (Hikaru Kume and Toshikazu Yamazaki, Clinical Microbiology, Vol. 21, No. 5, pp. 573-580, 1994).

[3] = test system: Aspergillus fumigatus FP1305; assay: Antifungal activity, broth microdilution method; assay type: cell-based; settings: minimum inhibitory concentration
Procedure: as §1

[4] = test system: Cryptococcus neoformans FP1739; assay: Antifungal activity, broth microdilution method; assay type: cell-based; settings: minimum inhibitory concentration
Procedure: as §1

[5] = test system: Trichophyton mentagrophytes FP2103; assay: Antifungal activity, broth microdilution method; assay type: cell-based; settings: minimum inhibitory concentration
Procedure: as §1

[6] = test system: Trichophyton rubrum FP596; assay: Antifungal activity, broth microdilution method; assay type: cell-based; settings: minimum inhibitory concentration
Procedure: as §1

Complex III = Complex III inhibitory activity, ubiquinol-cytochrome c reductase assay using isolated mitochondrial fraction; assay type: biochemical; settings: mitochondrial fraction of Trichophyton mentagrophytes FP2103; kind of value (IC50 or other) not stated
Procedure: A medium (0.1% glucose, 0.2% bacto tryptone, 0.2% K2HPO4, 0.005% MgSO4.7H2O and 0.005% CaC12.2H2O) was poured into an Erlenmeyer flask and sterilized by autoclaving. Conidiophores of Trichophyton mentagrophytes FP2103 were inoculated into the medium, and cultured at 30° C. for 40 hours while shaking on a rotary shaker. The fungus was collected from the cultural solution and dipped in a cell wall lysis enzyme solution {1 M KC1, 25 mM CaC12.2H2O, 10 mM MgC12.6H2O, 5 mg/mL zymolyase-100T (Seikagaku Corporation), 1 mg/mL chitinase (Sigma) and 5 mg/mL drieselase (Sigma)}, and the resulting mixture was stirred at 30° C. for 4 hours. The enzyme treatment solution was filtered through glass funnel filled with gauze to obtain protoplast. A mitochondrial fraction was isolated from the protoplast by using a Mitochondria Isolation Kit (BioChain Institute, Inc.). The Complex III inhibitory activity was measured in the ubiquinol-cytochrome c reductase assay using the isolated mitochondrial fraction (The Journal of Biological Chemistry, 279, pp. 8708-8714, 2004). As a result, the compound A inhibited the complex III at 0.9 ng/mL.

[7] = Cytotoxicity to EL-4 cells, cell counting kit; assay type: cell-based, mouse; settings: mouse, EL-4 mouse T lymphoma cells, 37° C.
Procedure: (§2) Cytotoxicity was evaluated by adding a test drug to mouse T lymphoma cell line EL-4 at various concentrations, incubating the cells in a CO2 incubator at 37° C. for 72 hours, counting the cells using a cell counting kit (Wako Pure Chemical Industries, Ltd.), and calculating IC50 values.

[8] = test system: mouse T lymphoma cell line EL-4; assay: Cytotoxicity to EL-4 cells, cell counting kit; assay type: cell-based; settings: 37° C., 72 hours
Procedure: as §2

## CN(C/C=C/C#CC(C)(C)C)Cc1cccc2ccccc12 [Terbinafine]
[1]
  activity against dormant fungi: weak activity

## CCC(C)CC(C)CCC1CCCC(c2c(O)c(C3C(O)C(O)C(O)C3O)cn(C)c2=O)O1 (stereo not drawn) [compound A]
[2]
  MIC: 6.3 µg/mL (≈ 13.5 µM)
[3]
  MIC: 25 µg/mL (≈ 53.5 µM)
[4]
  MIC: 1.3 µg/mL (≈ 2.78 µM)
[5]
  MIC: 0.1 µg/mL (≈ 0.214 µM)
[6]
  MIC: 0.1 µg/mL (≈ 0.214 µM)
Complex III
  concentration at which complex III was inhibited: 0.9 ng/mL
[7]
  IC50 at 72 h: 6.2 µg/mL (≈ 13.3 µM)
[8]
  concentrations showing no cytotoxic effect: ≤ 3100 ng/mL
